Source: ChEMBL document CHEMBL4507292 (2021)

How the values were obtained:
[1] = tested on: Tyrosine-protein kinase ABL1 (Homo sapiens), P00519 [F317I]; details: Compound concentration 1000.0 nM
[2] = tested on: Tyrosine-protein kinase ABL1 (Homo sapiens), P00519 [H396P]; details: Compound concentration 1000.0 nM
[3] = biological target: 5'-AMP-activated protein kinase catalytic subunit alpha-1 (Homo sapiens) (UniProt Q13131); details: Compound concentration 1000.0 nM
[4] = biological target: Protein-tyrosine kinase 6 (Homo sapiens) (UniProt Q13882); details: Compound concentration 1000.0 nM
[5] = biological target: Mitotic checkpoint serine/threonine-protein kinase BUB1 (Homo sapiens) (UniProt O43683); details: Compound concentration 1000.0 nM
[6] = biological target: Dual specificity protein kinase CLK1 (Homo sapiens) (UniProt P49759); details: Compound concentration 1000.0 nM
[7] = biological target: Casein kinase I isoform gamma-2 (Homo sapiens) (UniProt P78368); details: Compound concentration 1000.0 nM
[8] = biological target: Ephrin type-A receptor 3 (Homo sapiens) (UniProt P29320); details: Compound concentration 1000.0 nM
[9] = biological target: Ephrin type-A receptor 5 (Homo sapiens) (UniProt P54756); details: Compound concentration 1000.0 nM
[10] = biological target: Ephrin type-A receptor 7 (Homo sapiens) (UniProt Q15375); details: Compound concentration 1000.0 nM
[11] = biological target: Mitogen-activated protein kinase 1 (Homo sapiens) (UniProt P28482); details: Compound concentration 1000.0 nM
[12] = biological target: Focal adhesion kinase 1 (Homo sapiens) (UniProt Q05397); details: Compound concentration 1000.0 nM
[13] = biological target: Fibroblast growth factor receptor 4 (Homo sapiens) (UniProt P22455); details: Compound concentration 1000.0 nM
[14] = biological target: G protein-coupled receptor kinase 3 (Homo sapiens) (UniProt P35626); details: Compound concentration 1000.0 nM
G protein-coupled receptor kinase 3 (Homo sapiens), sequence (P35626 whole entry): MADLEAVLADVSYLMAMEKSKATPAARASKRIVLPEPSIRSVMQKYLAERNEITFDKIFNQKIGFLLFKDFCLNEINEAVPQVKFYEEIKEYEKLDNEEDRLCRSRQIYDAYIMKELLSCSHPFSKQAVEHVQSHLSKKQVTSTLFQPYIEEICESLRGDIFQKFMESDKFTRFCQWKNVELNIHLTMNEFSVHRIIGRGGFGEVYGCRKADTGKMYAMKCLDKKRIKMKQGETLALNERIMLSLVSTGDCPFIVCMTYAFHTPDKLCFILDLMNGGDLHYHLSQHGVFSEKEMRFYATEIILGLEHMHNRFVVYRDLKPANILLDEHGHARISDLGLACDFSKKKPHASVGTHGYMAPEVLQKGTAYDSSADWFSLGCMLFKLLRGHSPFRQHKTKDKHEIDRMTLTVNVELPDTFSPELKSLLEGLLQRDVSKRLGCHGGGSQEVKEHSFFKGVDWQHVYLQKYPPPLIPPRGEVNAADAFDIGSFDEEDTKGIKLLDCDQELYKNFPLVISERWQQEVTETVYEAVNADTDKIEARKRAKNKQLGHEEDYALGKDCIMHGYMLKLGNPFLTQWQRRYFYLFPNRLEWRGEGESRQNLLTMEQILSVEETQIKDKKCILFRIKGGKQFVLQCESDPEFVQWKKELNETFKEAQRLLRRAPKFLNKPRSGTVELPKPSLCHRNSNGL

[15] = biological target: Rhodopsin kinase GRK7 (Homo sapiens) (UniProt Q8WTQ7); details: Compound concentration 1000.0 nM
[16] = biological target: Glycogen synthase kinase-3 alpha (Homo sapiens) (UniProt P49840); details: Compound concentration 1000.0 nM
[17] = biological target: Homeodomain-interacting protein kinase 4 (Homo sapiens) (UniProt Q8NE63); details: Compound concentration 1000.0 nM
Homeodomain-interacting protein kinase 4 (Homo sapiens), sequence (Q8NE63 whole entry): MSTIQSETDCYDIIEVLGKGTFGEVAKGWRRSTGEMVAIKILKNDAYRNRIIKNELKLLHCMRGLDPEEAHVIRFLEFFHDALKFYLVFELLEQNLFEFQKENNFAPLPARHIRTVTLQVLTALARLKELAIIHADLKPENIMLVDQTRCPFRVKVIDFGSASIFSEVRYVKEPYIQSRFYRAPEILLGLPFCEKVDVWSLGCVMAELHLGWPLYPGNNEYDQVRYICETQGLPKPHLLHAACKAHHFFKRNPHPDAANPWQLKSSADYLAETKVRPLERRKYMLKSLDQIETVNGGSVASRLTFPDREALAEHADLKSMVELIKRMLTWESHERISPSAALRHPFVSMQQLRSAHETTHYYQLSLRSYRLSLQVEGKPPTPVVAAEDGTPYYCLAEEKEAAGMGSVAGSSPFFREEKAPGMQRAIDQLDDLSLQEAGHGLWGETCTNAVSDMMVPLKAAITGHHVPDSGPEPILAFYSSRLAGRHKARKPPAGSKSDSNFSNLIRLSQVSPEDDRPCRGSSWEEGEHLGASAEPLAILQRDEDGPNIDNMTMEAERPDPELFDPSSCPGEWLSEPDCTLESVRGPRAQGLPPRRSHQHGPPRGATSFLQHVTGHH

[18] = biological target: Hormonally up-regulated neu tumor-associated kinase (Homo sapiens) (UniProt P57058); details: Compound concentration 1000.0 nM
[19] = biological target: Tyrosine-protein kinase JAK1 (Homo sapiens) (UniProt P23458); details: Compound concentration 1000.0 nM
[20] = biological target: Mitogen-activated protein kinase 9 (Homo sapiens) (UniProt P45984); details: Compound concentration 1000.0 nM
[21] = biological target: Mitogen-activated protein kinase 10 (Homo sapiens) (UniProt P53779); details: Compound concentration 1000.0 nM
[22] = tested on: Mast/stem cell growth factor receptor Kit (Homo sapiens), P10721 [L576P]; details: Compound concentration 1000.0 nM
Mast/stem cell growth factor receptor Kit (Homo sapiens), P10721 [L576P], sequence (P10721 whole entry L576P): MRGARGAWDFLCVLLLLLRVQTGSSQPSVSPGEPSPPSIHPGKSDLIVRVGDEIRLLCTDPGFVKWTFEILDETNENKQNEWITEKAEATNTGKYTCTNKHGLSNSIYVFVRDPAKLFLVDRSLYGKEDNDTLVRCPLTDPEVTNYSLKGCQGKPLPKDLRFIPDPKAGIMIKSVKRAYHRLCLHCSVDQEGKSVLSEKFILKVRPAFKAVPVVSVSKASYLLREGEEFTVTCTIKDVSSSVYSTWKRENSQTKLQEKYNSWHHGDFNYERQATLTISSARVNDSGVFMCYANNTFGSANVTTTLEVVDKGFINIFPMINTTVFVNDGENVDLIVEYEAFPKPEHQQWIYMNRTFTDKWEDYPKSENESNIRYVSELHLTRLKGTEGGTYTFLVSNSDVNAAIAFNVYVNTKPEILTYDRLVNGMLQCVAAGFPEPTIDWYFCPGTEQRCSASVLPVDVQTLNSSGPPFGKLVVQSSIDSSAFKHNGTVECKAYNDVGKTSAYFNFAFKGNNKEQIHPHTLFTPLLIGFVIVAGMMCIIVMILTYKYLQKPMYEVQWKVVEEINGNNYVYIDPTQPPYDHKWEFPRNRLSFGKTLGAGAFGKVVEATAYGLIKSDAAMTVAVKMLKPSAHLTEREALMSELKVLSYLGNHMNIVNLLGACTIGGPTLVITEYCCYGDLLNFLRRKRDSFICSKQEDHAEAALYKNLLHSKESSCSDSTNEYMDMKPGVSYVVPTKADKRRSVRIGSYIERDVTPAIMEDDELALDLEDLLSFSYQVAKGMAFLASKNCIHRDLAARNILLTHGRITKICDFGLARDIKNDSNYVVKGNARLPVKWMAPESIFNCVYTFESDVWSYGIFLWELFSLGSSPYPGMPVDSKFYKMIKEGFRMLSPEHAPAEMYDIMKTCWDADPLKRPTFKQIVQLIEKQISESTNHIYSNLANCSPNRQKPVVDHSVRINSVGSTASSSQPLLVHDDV

[23] = biological target: Tyrosine-protein kinase Lck (Homo sapiens) (UniProt P06239); details: Compound concentration 1000.0 nM
[24] = biological target: Leukocyte tyrosine kinase receptor (Homo sapiens) (UniProt P29376); details: Compound concentration 1000.0 nM
[25] = biological target: Mitogen-activated protein kinase kinase kinase 4 (Homo sapiens) (UniProt Q9Y6R4); details: Compound concentration 1000.0 nM
[26] = biological target: MAP kinase-interacting serine/threonine-protein kinase 2 (Homo sapiens) (UniProt Q9HBH9); details: Compound concentration 1000.0 nM
MAP kinase-interacting serine/threonine-protein kinase 2 (Homo sapiens), sequence (Q9HBH9 whole entry, looked up): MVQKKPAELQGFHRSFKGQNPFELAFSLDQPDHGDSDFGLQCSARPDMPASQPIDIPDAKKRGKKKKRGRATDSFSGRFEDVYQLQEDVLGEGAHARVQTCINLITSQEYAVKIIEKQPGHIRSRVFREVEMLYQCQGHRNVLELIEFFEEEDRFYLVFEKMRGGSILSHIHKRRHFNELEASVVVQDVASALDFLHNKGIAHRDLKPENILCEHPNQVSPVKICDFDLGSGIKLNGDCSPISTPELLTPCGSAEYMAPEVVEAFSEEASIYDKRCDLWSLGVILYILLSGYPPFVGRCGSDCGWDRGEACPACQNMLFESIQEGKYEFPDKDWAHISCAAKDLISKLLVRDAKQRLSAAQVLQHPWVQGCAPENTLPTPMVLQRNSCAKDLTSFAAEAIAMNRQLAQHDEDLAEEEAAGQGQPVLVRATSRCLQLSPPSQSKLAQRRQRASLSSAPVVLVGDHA

[27] = biological target: Myosin light chain kinase (Homo sapiens) (UniProt Q32MK0); details: Compound concentration 1000.0 nM
[28] = biological target: Serine/threonine-protein kinase Nek2 (Homo sapiens) (UniProt P51955); details: Compound concentration 1000.0 nM
[29] = biological target: Mitogen-activated protein kinase 12 (Homo sapiens) (UniProt P53778); details: Compound concentration 1000.0 nM
[30] = biological target: Phosphatidylinositol 3-kinase C2 domain-containing subunit gamma (Homo sapiens) (UniProt O75747); details: Compound concentration 1000.0 nM
[31] = tested on: Phosphatidylinositol 4,5-bisphosphate 3-kinase catalytic subunit alpha isoform (Homo sapiens), P42336 [H1047L]; details: Compound concentration 1000.0 nM
Phosphatidylinositol 4,5-bisphosphate 3-kinase catalytic subunit alpha isoform (Homo sapiens), P42336 [H1047L], sequence (P42336 whole entry H1047L, canonical isoform): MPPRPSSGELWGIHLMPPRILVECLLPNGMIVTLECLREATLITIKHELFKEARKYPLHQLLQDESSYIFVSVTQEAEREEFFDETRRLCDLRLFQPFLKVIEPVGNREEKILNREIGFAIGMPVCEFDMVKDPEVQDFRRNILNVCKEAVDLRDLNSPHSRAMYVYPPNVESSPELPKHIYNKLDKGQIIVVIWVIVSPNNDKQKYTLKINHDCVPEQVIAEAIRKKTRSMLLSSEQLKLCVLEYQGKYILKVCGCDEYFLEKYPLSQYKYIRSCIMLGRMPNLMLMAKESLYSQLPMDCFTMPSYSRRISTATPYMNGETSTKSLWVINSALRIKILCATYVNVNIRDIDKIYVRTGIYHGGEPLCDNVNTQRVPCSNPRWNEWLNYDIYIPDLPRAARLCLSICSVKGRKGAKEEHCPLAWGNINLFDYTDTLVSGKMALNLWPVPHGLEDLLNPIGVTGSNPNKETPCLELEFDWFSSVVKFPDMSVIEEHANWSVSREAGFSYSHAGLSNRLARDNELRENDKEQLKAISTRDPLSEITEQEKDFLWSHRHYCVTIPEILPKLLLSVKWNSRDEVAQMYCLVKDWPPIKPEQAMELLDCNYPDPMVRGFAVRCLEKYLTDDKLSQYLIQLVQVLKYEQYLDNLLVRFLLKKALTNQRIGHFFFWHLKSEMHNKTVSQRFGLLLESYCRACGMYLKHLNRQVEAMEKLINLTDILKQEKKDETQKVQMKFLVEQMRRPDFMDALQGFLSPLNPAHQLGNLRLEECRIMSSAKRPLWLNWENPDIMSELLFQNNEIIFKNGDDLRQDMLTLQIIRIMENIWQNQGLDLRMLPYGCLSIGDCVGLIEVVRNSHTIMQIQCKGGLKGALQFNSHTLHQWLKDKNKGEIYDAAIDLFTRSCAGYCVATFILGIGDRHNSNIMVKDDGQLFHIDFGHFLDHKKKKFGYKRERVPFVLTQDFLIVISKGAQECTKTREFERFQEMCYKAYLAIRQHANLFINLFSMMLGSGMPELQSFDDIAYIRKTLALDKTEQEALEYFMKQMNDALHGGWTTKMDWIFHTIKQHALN

[32] = biological target: cAMP-dependent protein kinase catalytic subunit PRKX (Homo sapiens) (UniProt P51817); details: Compound concentration 1000.0 nM
[33] = tested on: Proto-oncogene tyrosine-protein kinase receptor Ret (Homo sapiens), P07949 [V804M]; details: Compound concentration 1000.0 nM
[34] = biological target: Ribosomal protein S6 kinase alpha-5 (Homo sapiens) (UniProt O75582); details: Compound concentration 1000.0 nM
[35] = biological target: Ribosomal protein S6 kinase alpha-6 (Homo sapiens) (UniProt Q9UK32); details: Compound concentration 1000.0 nM
[36] = biological target: Serine/threonine-protein kinase Sgk2 (Homo sapiens) (UniProt Q9HBY8); details: Compound concentration 1000.0 nM
[37] = biological target: SRSF protein kinase 1 (Homo sapiens) (UniProt Q96SB4); details: Compound concentration 1000.0 nM
[38] = biological target: Serine/threonine-protein kinase TAO1 (Homo sapiens) (UniProt Q7L7X3); details: Compound concentration 1000.0 nM
[39] = biological target: Activated CDC42 kinase 1 (Homo sapiens) (UniProt Q07912); details: Compound concentration 1000.0 nM
[40] = biological target: Non-receptor tyrosine-protein kinase TYK2 (Homo sapiens) (UniProt P29597); details: Compound concentration 1000.0 nM
[41] = biological target: Wee1-like protein kinase 2 (Homo sapiens) (UniProt P0C1S8); details: Compound concentration 1000.0 nM
Wee1-like protein kinase 2 (Homo sapiens), sequence (P0C1S8 whole entry, looked up): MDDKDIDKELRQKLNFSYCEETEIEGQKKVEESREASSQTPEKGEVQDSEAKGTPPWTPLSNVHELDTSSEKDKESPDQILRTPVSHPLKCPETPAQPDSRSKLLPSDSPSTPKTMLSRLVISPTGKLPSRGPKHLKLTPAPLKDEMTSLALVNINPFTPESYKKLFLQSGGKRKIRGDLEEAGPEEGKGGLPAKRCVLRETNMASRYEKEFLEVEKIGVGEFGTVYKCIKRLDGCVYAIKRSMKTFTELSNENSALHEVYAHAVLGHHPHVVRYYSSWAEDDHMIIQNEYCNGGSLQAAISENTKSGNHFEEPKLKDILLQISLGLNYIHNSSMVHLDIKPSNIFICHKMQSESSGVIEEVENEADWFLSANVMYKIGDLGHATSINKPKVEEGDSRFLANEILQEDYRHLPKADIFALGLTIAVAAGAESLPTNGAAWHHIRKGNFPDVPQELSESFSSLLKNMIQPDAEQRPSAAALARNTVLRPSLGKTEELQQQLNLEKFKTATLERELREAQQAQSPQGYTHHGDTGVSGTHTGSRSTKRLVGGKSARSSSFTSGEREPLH

[42] = biological target: Tyrosine-protein kinase Yes (Homo sapiens) (UniProt P07947); details: Compound concentration 1000.0 nM
Tyrosine-protein kinase Yes (Homo sapiens), sequence (P07947 2-543 limits assumed): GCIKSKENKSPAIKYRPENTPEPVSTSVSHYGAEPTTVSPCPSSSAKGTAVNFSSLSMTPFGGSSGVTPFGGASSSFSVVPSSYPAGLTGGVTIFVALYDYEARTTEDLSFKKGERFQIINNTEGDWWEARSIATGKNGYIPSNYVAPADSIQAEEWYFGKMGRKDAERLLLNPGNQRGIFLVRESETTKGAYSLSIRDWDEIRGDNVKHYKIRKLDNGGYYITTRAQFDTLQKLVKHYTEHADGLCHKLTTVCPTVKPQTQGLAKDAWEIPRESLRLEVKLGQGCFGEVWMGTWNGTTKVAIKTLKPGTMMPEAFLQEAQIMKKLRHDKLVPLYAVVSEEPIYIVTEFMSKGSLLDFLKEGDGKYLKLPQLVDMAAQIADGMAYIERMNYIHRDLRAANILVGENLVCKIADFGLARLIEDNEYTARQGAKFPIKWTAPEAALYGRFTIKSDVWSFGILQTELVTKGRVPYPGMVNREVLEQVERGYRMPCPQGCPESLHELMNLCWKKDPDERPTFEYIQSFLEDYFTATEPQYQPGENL

[43] = biological target: 5-hydroxytryptamine receptor 2A (Homo sapiens) (UniProt P28223); details: Compound concentration 10.0 uM
[44] = biological target: Beta-1 adrenergic receptor (Homo sapiens) (UniProt P08588); details: Compound concentration 10.0 uM
[45] = biological target: Muscarinic acetylcholine receptor M2 (Homo sapiens) (UniProt P08172); details: Compound concentration 10.0 uM

Cc1c(C(=O)O)cc(-c2ccc(C3CCNCC3)cc2)c2ccc(-c3ccc(C(F)(F)F)cc3)cc12 [PPTN-NC]
inactive: residual activity [1] 100% | residual activity [2] 99% | residual activity [3] 98% | residual activity [4] 100% | residual activity [5] 100% | residual activity [6] 100% | residual activity [7] 100% | residual activity [8] 100% | residual activity [9] 100% | residual activity [10] 100% | residual activity [11] 100% | residual activity [12] 100% | residual activity [13] 100% | residual activity [14] 71% | residual activity [15] 91% | residual activity [16] 100% | residual activity [17] 100% | residual activity [18] 100% | residual activity [19] 79% | residual activity [20] 100% | residual activity [21] 100% | residual activity [22] 100% | residual activity [23] 100% | residual activity [24] 100% | residual activity [25] 100% | residual activity [26] 100% | residual activity [27] 94% | residual activity [28] 100% | residual activity [29] 85% | residual activity [30] 100% | residual activity [31] 100% | residual activity [32] 100% | residual activity [33] 98% | residual activity [34] 100% | residual activity [35] 100% | residual activity [36] 100% | residual activity [37] 100% | residual activity [38] 100% | residual activity [39] 100% | residual activity [40] 100% | residual activity [41] 100% | residual activity [42] 100% | inhibition [43] 23.4% | inhibition [44] 29.2% | inhibition [45] 19.3%

O=C(O)c1cc(-c2ccc(C3CCNCC3)cc2)c2ccc(-c3ccc(C(F)(F)F)cc3)cc2c1 [PPTN]
inactive: residual activity [1] 100% | residual activity [2] 86% | residual activity [3] 100% | residual activity [4] 100% | residual activity [5] 100% | residual activity [6] 100% | residual activity [7] 100% | residual activity [8] 100% | residual activity [9] 97% | residual activity [10] 100% | residual activity [11] 97% | residual activity [12] 100% | residual activity [13] 100% | residual activity [14] 68% | residual activity [15] 85% | residual activity [16] 99% | residual activity [17] 100% | residual activity [18] 100% | residual activity [19] 87% | residual activity [20] 100% | residual activity [21] 100% | residual activity [22] 100% | residual activity [23] 100% | residual activity [24] 100% | residual activity [25] 100% | residual activity [26] 100% | residual activity [27] 100% | residual activity [28] 100% | residual activity [29] 99% | residual activity [30] 100% | residual activity [31] 100% | residual activity [32] 100% | residual activity [33] 100% | residual activity [34] 100% | residual activity [35] 100% | residual activity [36] 100% | residual activity [37] 86% | residual activity [38] 100% | residual activity [39] 100% | residual activity [40] 100% | residual activity [41] 100% | residual activity [42] 100% | inhibition [43] 29.1% | inhibition [44] 24.7% | inhibition [45] 10.9%
